Results reported in US20250339404A1, “COMBINATION THERAPY USING A CD47-SIRP alpha BLOCKING AGENT AND AZACITIDINE” (Aurigene Oncology Limited, priority 2024, published 2025).
Entries after “also recorded” stand apart in the source; their conditions may differ. Where a name gives a salt, the structure may show the parent alone.

Assays:
[1] = Phase I/IIa open label dose-escalation safety study in subjects with relapsed advanced malignancies; assay type: in vivo, human; details: for Grade 3 or 4 toxicities / adverse events: correlated with the Test Product
From the text: Study objective: To evaluate the overall safety profile of the compound of formula (I) in human subjects with relapsed advanced malignancies.
The following table summarizes the (final) study protocol.

[2] = tested on: Chemokines (MCP-3, MCP-1, MIP-1α & MIP-1β) and Cytokines (IL-12p40, IL-1A, IL-8, TNFα & IL-6); assay: Pharmacodynamic biomarkers in the Phase I/IIa study; assay type: in vivo, human; details: all cohorts, as a result of treatment
From the text: Chemokines are known for their role in recruitment of macrophages to sites of infection, damage, or tumors for the purpose of phagocytosis and healing. An upregulation of chemokines followed by administration of the compound of formula (I) is indicative of the CD-47 inhibition mediated enhanced phagocytosis. Disruption of the IL-6-STAT3 axis is known to reduce the ability of tumor cells to escape phagocytosis (Jing Chen et al. Oncoimmunology 2019, VOL. 8, NO. 11, e1652540). A drop in IL-6 level is also indicative of macrophage activation.

HL-60 cells = assay: Phagocytosis of HL-60 cells by human macrophages; assay type: cell-based
Experimental: The objective of this study was to determine the effect of Calcium salt of compound of formula (I) and azacitidine mediated induction of phagocytosis of HL-60 cells by human macrophages. Different doses of Calcium salt of compound of formula (I) were tested to determine increase in phagocytosis of HL-60 cells (with or without azacitidine treatment) by macrophages isolated from healthy human volunteers.
Preparation of test compound: 20 mM stock concentration of Calcium salt of compound of formula (I) was prepared. The stock was further diluted to get intermediate and final concentrations. The final assay volume was 200 μL. Medium used for dilution is RPMI media. Four concentrations of Calcium salt of compound of formula (I) ranging from 10 μM to 0.3 μM were used in the assay.
Preparation of macrophage culture media: 5 mL of FBS and 10 μL of recombinant human M CSF (100 μg/mL stock) was added to 45 mL of RPMI to prepare macrophage culture media as and when required.
Preparation of HL-60 cell culture media: 10 mL of FBS was added to 40 mL of IMDM media to prepare HL-60 cell culture media.
Preparation of working stock of azacitidine: A 20 mM stock of azacitidine prepared by adding 172.1 μL of DMSO in 0.84 mg of azacitidine. 4.5 μL of 20 mM stock of azacitidine was added to 25.5 μL of DMSO to prepare 3 mM azacitidine working stock solution. This is 1000× of the desired final treatment concentration of 3 μM.
Preparation of working stock of Mouse IgG1 Kappa isotype control: Molarity of mouse IgG1 kappa isotype control antibody was calculated using online molarity calculator (https://www.graphpad.com/quickcalcs/Molarityform.cfm). Formula weight of antibody was 150 KDa. Molarity of isotype control antibody stock was 6.6667 μM. 3 μL of isotype control antibody stock solution was added to 197 μL RPMI media to prepare 100 nM of working stock solution. This is 10× stock of the required conc of isotype control. Preparation of working stock of anti-human CD47 antibody Molarity of anti-human CD47 antibody was calculated using online molarity calculator (https://www.graphpad.com/quickcalcs/Molarityform.cfm). Formula weight of anti-Human CD47 antibody was 150 KDa. Molarity of anti-human CD47 antibody stock was 6.6667 μM. This stock of anti-human CD47 antibody was further diluted to get intermediate and final concentrations as described below. 3 μL of anti-human CD47 antibody stock solution was added to 197 μL RPMI media to prepare 100 nM of working stock solution (10×).
Preparation of test system: 90 mL whole blood from healthy volunteer was collected in a Na-Heparin vacutainer and stored at room temperature until use. PBMCs isolated from blood were used for isolating monocytes and to differentiate them into macrophages for the phagocytosis assay.
90 mL blood was collected from healthy volunteer in NA-Heparin vacutainer. PBMCs were isolated and were resuspended in 50 mL serum free RPMI 1640 media. For isolation of monocytes, 10 mL of PBMC cell suspension was seeded in each T75 culture flask (total 5 flasks) and were cultured at 37 degree for 2 hours. Monocytes were attached to culture flask by adherence method. Media from these flasks was discarded and attached monocytes were washed once with prewarmed PBS. Monocytes were further cultured in 10 mL of macrophage culture media and were differentiated to macrophages for 10 days. Media from each flask was changed every alternate day or after every 2 days with fresh macrophage culture media.
A vial of HL-60 cell stock was taken from liquid nitrogen. Cells were thawed in a water bath at 37° C. till the last crystal is thawed. Cells were transferred to 50 mL of culture media in a falcon tube and centrifuged at 800 rpm for 8 minutes. Cells were further cultured in 20 mL of HL-60 cell culture media in T75 flasks at 37° C. at 5% CO2 for 24 hrs. After 24 hrs, the cells were centrifuged at 800 rpm for 5 mins. The cells were cultured in 25 mL of complete media at 37° C. and 5% CO2 for 2 more days. […]

[3] = all subjects, across dose levels 25-400 mg BID oral
[4] = Azacitidine 3 μM alone, HL-60 cells treated 72 hrs
[5] = 0.3 μM, DMSO treated HL-60 cells
[6] = 10 μM, DMSO treated HL-60 cells, normalized to 10 nM anti-human CD47

Structure (SMILES): N=C(N)NCCC[C@H](NC(=O)N1CCC[C@@H]1C(=O)O)c1nc([C@@H](N)CCC(=O)O)no1 [Compound of formula (I)]
- severity of reported non-serious adverse events ([1]; all cohorts, NCI CTCAE v 5.0): mild to moderate
- Grade 3 or 4 toxicities / adverse events ([1]; all cohorts): no grade 3 or grade 4 adverse events
- Grade 3 or 4 toxicities / adverse events ([1]; all cohorts, listed as compound of formula (I)): no grade 3 or grade 4 adverse events
- DLT (Dose Limiting Toxicity) [1, 3]: without any DLT
- hemolytic anemia [1, 3]: No hemolytic anemia was reported in any subject; also recorded: no hemolytic anemia in any of the tested subjects
- tolerability of treatment ([1]; all subjects, across dose levels 25-400 mg BID oral, up to 4 cycles of 28 days): well tolerated
- hemolytic anemia ([1]; all subjects, across dose levels 25-400 mg BID oral, listed as compound of formula (I)): no hemolytic anemia in any of the tested subjects
- safe and tolerable total daily dose ([1]; oral, total daily dose): ≤ 800 mg
- safe and tolerable dose ([1]; per oral BID): ≤ 400 mg
- Serious Adverse Reactions (SAR's) or Suspected Unexpected Serious Adverse Reactions (SUSAR's) ([1]; reporting period): No Serious Adverse Reactions (SAR's) or Suspected Unexpected Serious Adverse Reactions (SUSAR's) were reported
- dose reductions due to treatment-related AEs ([1]; reporting period): no dose reductions
- IL12p40, TNFα, MCP-1, MIP-1α, MIP-1β and MCP-3 levels [2]: a trend towards upregulation
- IL-6 and IL-1α levels [2]: a trend towards downregulation

Structure (SMILES): Nc1ncn([C@@H]2O[C@H](CO)[C@@H](O)[C@H]2O)c(=O)n1 [Azacitidine, 4-Amino-1-β-D-ribofuranosyl-s-triazin-2(1H)-one]
- increase in phagocytosis of HL-60 cells (HL-60 cells; 3 μM azacitidine treatment of HL-60 cells alone): 71.26%
- % Normalized phagocytosis Replicate 1 (HL-60 cells; [4]): 76.25%
- % Normalized phagocytosis Replicate 2 (HL-60 cells; [4]): 66.28%

Structure (SMILES): N=C(N)NCCC[C@H](NC(=O)N1CCCC1C(=O)O)c1nc([C@@H](N)CCC(=O)O)no1 (stereo partly shown) [Calcium salt of compound of formula (I)]
- % Normalized phagocytosis Replicate 1 (HL-60 cells; [5]): −1.92%
- % Normalized phagocytosis Replicate 2 (HL-60 cells; [5]): −10.34%
- % Normalized phagocytosis Replicate 1 (HL-60 cells; 1 μM, DMSO treated HL-60 cells): 19.54%
- % Normalized phagocytosis Replicate 2 (HL-60 cells; 1 μM, DMSO treated HL-60 cells): 4.98%
- % Normalized phagocytosis Replicate 1 (HL-60 cells; 3 μM, DMSO treated HL-60 cells): −10.34%
- % Normalized phagocytosis Replicate 2 (HL-60 cells; 3 μM, DMSO treated HL-60 cells): −14.94%
- increase in phagocytosis of HL-60 cells (HL-60 cells; 10 μM alone): 54.79%
- % Normalized phagocytosis Replicate 1 (HL-60 cells; [6]): 62.35%
- % Normalized phagocytosis Replicate 2 (HL-60 cells; [6]): 47.13%
- Grade 3 or 4 toxicities / adverse events ([1]; all cohorts): No Grade 3 or 4 toxicities
- causality assessment of the serious adverse events ([1]; by principal investigators and study sponsor): Not Related
- serious adverse events reported ([1]; one in cohort 2 (50 mg BID), one in cohort 3 (100 mg BID)): Two serious adverse events were reported
